Test results from patent publication US12338219B2, “Antimalarial agents” (Merck Sharp & Dohme LLC, priority 2019, dated 2025).

Each molecule was assayed on parasites (ring stage parasites, parasite growth) (assay: Parasite LDH growth assay (Parasite Assay), antiparasite potency). Conditions: 72 h, 72 hours growth, LDH readout; Table 3.
Assay type: cell-based
Description: Assessing Antiparasite Potency in a Parasite LDH Growth Assay (Parasite Assay) The parasite stock was maintained at […] in RPMI-Hepes media buffered with sodium bicarbonate and supplemented with […]. […] On the day of assay set up, a blood smear of the parasite culture was Giemsa stained and counted. The parasitemia was adjusted to 0.7% rings and the haematocrit was diluted to 2% in RPMI-Hepes media buffered with sodium bicarbonate and supplemented with 500 heat inactivated human serum and 0.5% albumax. 30 ul of diluted parasites are then added into 10 ul of media+compound in pre-prepared Greiner TC assay plates. Parasite assay plates were placed in gassed humidified boxes in single layer and allowed to incubate at 37° C. for 72 hours. After 72 hours growth, assay plates are sealed with parafilm and frozen flat, in single file at −80° C. overnight. On the following day, assay plates are allowed to thaw at room temperature for 4 hours to which an LDH assay is performed to measure parasite growth.

| Structure (SMILES) | EC50 |
| --- | --- |
| CCC1(CC)CC(=O)N(C[C@@H]2C[C@H]2C(=O)N[C@H]2C[C@H](C(F)(F)F)Oc3ccccc32)C(=N)N1 [Example 8A] | 37 nM |
| COCC[C@H]([C@@H]1C[C@H]1C(=O)N[C@H]1CC(C)(C)Oc2cccc(F)c21)N1C(=N)NC(C)(C)CC1=O [Example 88A] | 5.2 nM |
| COCC[C@H]([C@@H]1C[C@H]1C(=O)N[C@@H]1CC(C)(C)Oc2c(F)cc(F)cc21)N1C(=N)NC(C)(C)CC1=O [Example 113A] | 19 nM |
| COCC[C@H]([C@@H]1C[C@H]1C(=O)N[C@@H]1CC(C)(C)Oc2cc(C)c(C)cc21)N1C(=N)NC(C)(C)CC1=O [Example 138B] | 18 nM |
| COCC[C@H]([C@@H]1C[C@H]1C(=O)N[C@@H]1CC(C)(C)Oc2ccc(C(F)(F)F)cc21)N1C(=N)NC(C)(C)CC1=O [Example 110A] | 21 nM |
| CCC1(CC)CC(=O)N([C@H](c2cccnc2)[C@@H]2C(C)[C@H]2C(=O)N[C@H]2C[C@H](C(F)(F)F)Oc3ccccc32)C(=N)N1 (stereo partly drawn) [Example 55A] | 0.8 nM |
| CC1C[C@H](NC(=O)[C@@H]2C[C@H]2CN2C(=N)NC(C)(C)CC2=O)c2cc(F)ccc2O1 (stereo partly drawn) [Example 139A] | 99 nM |
| COCC[C@H]([C@@H]1C[C@H]1C(=O)N[C@H]1CC(C)(C)Oc2cccc(OC(F)(F)F)c21)N1C(=N)NC(C)(C)CC1=O [Example 107A] | 2.1 nM |
| COCC[C@H]([C@@H]1C[C@H]1C(=O)NC1CC(C)(C)Oc2ccccc21)N1C(=N)NC(C)(C)CC1=O (stereo partly drawn) [Example 23A] | 16 nM |
| COCC[C@H]([C@@H]1C[C@H]1C(=O)N[C@H]1CC(C)(C)Oc2cccc(OC)c21)N1C(=N)NC(C)(C)CC1=O [Example 74B] | 3.1 nM |
| Cc1ccc2c(c1)OC(C)(C)C[C@H]2NC(=O)[C@@H]1C[C@H]1[C@@H](c1cccnc1)N1C(=N)NC(C)(C)CC1=O [Example 85A] | 2.4 nM |
| CC1(C)CC(=O)N([C@@H](c2cccnc2)[C@H]2[C@H](C(=O)N[C@H]3C[C@H](C(F)(F)F)Oc4ccccc43)C2(C)C)C(=N)N1 [Example 43B] | 37 nM |
| CC1(C)CC(=O)N([C@@H](c2cncc(Cl)c2)[C@@H]2C[C@H]2C(=O)N[C@H]2C[C@H](C(F)(F)F)Oc3ccccc32)C(=N)N1 [Example 60B] | 100 nM |
| CC1(C)CC(=O)N([C@H](c2cccnc2)[C@@H]2C[C@H]2C(=O)NC2CC(C)(C)Oc3cccc(F)c32)C(=N)N1 (stereo partly drawn) [Example 86A] | 2.2 nM |
| CCC1(CC)CC(=O)N([C@H](CCOC)[C@@H]2C[C@H]2C(=O)N[C@H]2c3ccccc3OCC2(C)C)C(=N)N1 [Example 19A] | 28 nM |
| CCC1(CC)CC(=O)N([C@H](CCOC)[C@@H]2C[C@H]2C(=O)N[C@@H]2c3ccccc3OCC2(C)C)C(=N)N1 [Example 19B] | 4.2 nM |
| COCC[C@H]([C@@H]1C[C@H]1C(=O)N[C@H]1CC(C)(C)Oc2ccc(F)cc21)N1C(=N)NC(C)(C)CC1=O [Example 72B] | 2.5 nM |

| Structure (SMILES) | EC50 |
| --- | --- |
| CC1(C)CC(=O)N(C[C@@H]2C[C@H]2C(=O)N[C@H]2CC(C)(C)Oc3ccc(Cl)cc32)C(=N)N1 [Example 95] | 110 nM |
| CCC1(CC)CC(=O)N([C@H](c2cccnc2)[C@@H]2C(C)[C@H]2C(=O)N[C@H]2CC(C)(C)Oc3ccccc32)C(=N)N1 (stereo partly drawn) [Example 56B] | 0.7 nM |
| CC1(C)CC(=O)N([C@H](c2ccc(C#N)cc2)[C@@H]2C[C@H]2C(=O)N[C@@H]2c3ccccc3OC(C)(C)[C@H]2O)C(=N)N1 [Example 46] | 2.5 nM |
| CC[C@]1(C)CC(=O)N([C@H](CCOC)[C@@H]2C[C@H]2C(=O)N[C@H]2CC(C)(C)Oc3ccc(Cl)cc32)C(=N)N1 [Example 124] | 0.8 nM |
| CCC1(CC)CC(=O)N([C@H](c2cccnc2)[C@@H]2C[C@H]2C(=O)N[C@@H]2c3ccccc3C[C@H]2O)C(=N)N1 [Example 10] | 27 nM |
| CC1(C)CC(=O)N([C@H](c2cccc(C#N)c2)[C@@H]2C[C@H]2C(=O)N[C@H]2C[C@H](C(F)(F)F)Oc3ccccc32)C(=N)N1 [Example 52] | 1 nM |
| COCC[C@H]([C@@H]1C[C@H]1C(=O)N[C@H]1CC(C)(C)Oc2cc(OC(F)(F)F)ccc21)N1C(=N)NC(C)(C)CC1=O [Example 134B] | 25 nM |
| COCC[C@H]([C@@H]1C[C@H]1C(=O)N[C@H]1CC(C)(C)Oc2cc(Cl)ccc21)N1C(=N)NC(C)(C)CC1=O [Example 89A] | 5.6 nM |
| CC[C@]1(C)CC(=O)N([C@H](CCOC)[C@@H]2C[C@H]2C(=O)N[C@H]2C[C@H](C(F)(F)F)Oc3ccccc32)C(=N)N1 [Example 62B] | 0.8 nM |
| CCC1(CC)CC(=O)N([C@H](CCOC)[C@@H]2C[C@H]2C(=O)N[C@H]2C[C@H](C(F)(F)F)Oc3ccccc32)C(=N)N1 [Example 14] | 0.9 nM |
| CCC1(CC)CC(=O)N(C[C@@H]2C[C@H]2C(=O)N[C@H]2CC(C)(C)Oc3ccc(F)cc32)C(=N)N1 [Example 7A] | 135 nM |
| CCC1(CC)CC(=O)N([C@@H](c2cccnc2)[C@@H]2C(C)[C@H]2C(=O)N[C@H]2C[C@H](C(F)(F)F)Oc3ccccc32)C(=N)N1 (stereo partly drawn) [Example 55B] | 180 nM |
| CCC1(CC)CC(=O)N(C[C@@H]2C[C@H]2C(=O)N[C@@H](C)c2ccccc2)C(=N)N1 [Example 3B] | 151 nM |
| CCC1(CC)CC(=O)N(C[C@H]2C[C@@H]2C(=O)N[C@H]2CCOc3ccccc32)C(=N)N1 [Example 4A] | 94 nM |
| COCC[C@H]([C@@H]1C[C@H]1C(=O)N[C@H]1C[C@H](C(F)(F)F)Oc2ccccc21)N1C(=N)NC(C)(C)CC1=O [Example 24B] | 2 nM |
| CC1(C)CC(=O)N(C[C@@H]2C[C@H]2C(=O)N[C@H]2CC(C)(C)Oc3ccc(F)cc32)C(=N)N1 [Example 71] | 125 nM |
| COCC[C@H]([C@@H]1C[C@H]1C(=O)N[C@H]1CC(C)(C)Oc2ccc(C)cc21)N1C(=N)NC(C)(C)CC1=O [Example 132] | 6.7 nM |

Same assay, conditions: 72 h, 72 hours growth, LDH readout; Table 4 (unit inferred)

| Structure (SMILES) | EC50 |
| --- | --- |
| CCC1(CC)CC(=O)N([C@H](CCOC)[C@@H]2C[C@H]2C(=O)NC2CC(C)(C)Oc3c(Cl)cccc32)C(=N)N1 (stereo partly drawn) [Example 148A] | 2.7 nM |

Same assay, conditions: 72 hours growth, LDH readout; Table 3

| Structure (SMILES) | EC50 |
| --- | --- |
| COCC[C@H]([C@@H]1C[C@H]1C(=O)NC1CC(C)(COC)Oc2ccccc21)N1C(=N)NC(C)(C)CC1=O (single isomer, unassigned) [Example 82D] | 27 nM |
| COCC[C@H]([C@@H]1C[C@H]1C(=O)NC1CC(C)(C)Oc2ccccc21)N1C(=N)NC(C)(C)CC1=O (stereo partly drawn) [Example 23B] | 15 nM |
| CCC1(C)CC(NC(=O)[C@@H]2C[C@H]2[C@@H](c2cccnc2)N2C(=N)NC(C)(C)CC2=O)c2ccccc2O1 (single isomer, unassigned) [Example 105B] | 1.8 nM |
| CC1(C)CC(=O)N([C@H](c2cccnc2)[C@@H]2C[C@H]2C(=O)NC2CC(C)(C)Oc3ccc(C(F)(F)F)cc32)C(=N)N1 (single isomer, unassigned) [Example 109B] | 1 nM |
| CC1(C)CC(=O)N([C@H](c2cccnc2)[C@@H]2C[C@H]2C(=O)NC2CC(C)(C)Oc3ccc(F)cc32)C(=N)N1 (single isomer, unassigned) [Example 98A] | 0.9 nM |
| CCC1(CC)CC(=O)N(C[C@@H]2C(C)[C@H]2C(=O)N[C@H]2CC(C)(C)Oc3ccccc32)C(=N)N1 (single isomer, unassigned) [Example 25A] | 84 nM |
| CCC1(CC)CC(=O)N(C[C@@H]2C(C)[C@H]2C(=O)N[C@@H]2c3ccccc3CC2(C)O)C(=N)N1 (single isomer, unassigned) [Example 29A] | 203 nM |
| COCC[C@H]([C@@H]1C[C@H]1C(=O)NC1CC(C)(C)Oc2c(Cl)cccc21)N1C(=N)NC(C)(C)CC1=O (stereo partly drawn) [Example 112B] | 9.4 nM |
| COCC[C@H]([C@@H]1C[C@H]1C(=O)NC1CC(C)(C(C)C)Oc2ccccc21)N1C(=N)NC(C)(C)CC1=O (single isomer, unassigned) [Example 80B] | 6.6 nM |
| CCC1(C)CC(NC(=O)[C@@H]2C[C@H]2[C@@H](CCOC)N2C(=N)NC(C)(C)CC2=O)c2ccccc2O1 (single isomer, unassigned) [Example 75B] | 7.5 nM |
| CC[C@]1(C)CC(=O)N(C(c2cncc(F)c2)[C@@H]2C[C@H]2C(=O)N[C@@H]2c3ccccc3OC(C)(C)C2(C)O)C(=N)N1 (single isomer, unassigned) [Example 103B] | 2.1 nM |
| CCC1(CC)CC(NC(=O)[C@@H]2C[C@H]2[C@@H](CCOC)N2C(=N)NC(C)(C)CC2=O)c2ccccc2O1 (stereo partly drawn) [Example 92B] | 7.2 nM |
| CC[C@]1(C)CC(=O)N([C@H](CCOC)[C@@H]2C[C@H]2C(=O)NC2CC(C)(C)Oc3ccc(F)cc32)C(=N)N1 (single isomer, unassigned) [Example 130B] | 2.4 nM |
| CC(C)C1(C)CC(NC(=O)[C@@H]2C[C@H]2[C@@H](c2cccnc2)N2C(=N)NC(C)(C)CC2=O)c2ccccc2O1 (single isomer, unassigned) [Example 81B] | 1 nM |
| COCC[C@H]([C@@H]1C[C@H]1C(=O)NC1CC(C)(C(C)C)Oc2ccccc21)N1C(=N)NC(C)(C)CC1=O (single isomer, unassigned) [Example 80D] | 21 nM |
| CCC1(CC)CC(=O)N(CC2C(C(=O)N[C@H]3CCOc4ccccc43)C2(F)F)C(=N)N1 (stereo partly drawn) [Example 15B] | 230 nM |

Same assay, conditions: 72 hours growth, LDH readout; Table 4 (unit inferred)

| Structure (SMILES) | EC50 |
| --- | --- |
| CCC1(CC)CC(=O)N(C(CC(C)OC)[C@@H]2C[C@H]2C(=O)N[C@H]2CC(C)(C)Oc3ccccc32)C(=N)N1 (single isomer, unassigned) [Example 142B] | 0.7 nM |
| CCC1(CC)CC(=O)N(C(CC(C)OC)[C@@H]2C[C@H]2C(=O)N[C@H]2CC(C)(C)Oc3ccccc32)C(=N)N1 (single isomer, unassigned) [Example 142C] | 205 nM |
| CCC1(CC)CC(=O)N([C@H](CCOC)[C@@H]2C[C@H]2C(=O)NC2CC(C)(C)Oc3c(Cl)cccc32)C(=N)N1 (stereo partly drawn) [Example 148B] | 1.9 nM |
